Measured values published in patent publication US11696917B2, “Agent enhancing antitumor effect using pyrazolo[3,4-d]pyrimidine compound” (TAIHO PHARMACEUTICAL CO., LTD., priority 2017, dated 2023).

target: purified recombinant human HER2 protein (Homo sapiens (Human), UniProt P04626); assay: Measurement of inhibitory effect on HER2-phosphorylating activity (in vitro); assay type: biochemical; details: ATP 6 μM, 25° C., 40 minutes
From the text: The purified recombinant human HER2 protein used in the test was purchased from Carna Biosciences, Inc.
For the inhibitory activity measurement of each compound, the synthesis example compound was first serially diluted with dimethyl sulfoxide (DMSO).

Compound | IC50 [nM]
C=CC(=O)N1CCC[C@@H](n2nc(C(=O)Nc3ccc(CC(=O)N(C)C)c(F)c3)c3c(N)ncnc32)C1 [compound 42] | 18
C=CC(=O)N1CC[C@@H](n2nc(C(=O)Nc3ccc(CC(=O)N(C)C)c(C)c3C)c3c(N)ncnc32)C1 [compound 59] | 45
C=CC(=O)N1CC[C@@H](n2nc(C(=O)Nc3ccc(CC(=O)N(C)C)cc3Cl)c3c(N)ncnc32)C1 [compound 54] | 31
C=CC(=O)N1CCC[C@@H](n2nc(C(=O)Nc3ccc(CC(=O)N(C)C)cc3C#N)c3c(N)ncnc32)C1 [compound 23] | 20
C=CC(=O)N1CC[C@@H](n2nc(C(=O)Nc3ccc(CC(=O)N(C)C)cc3Br)c3c(N)ncnc32)C1 [compound 62] | 59
C=CC(=O)N1CCC[C@@H](n2nc(C(=O)Nc3ccc(CC(=O)N(C)C)cc3N(C)C)c3c(N)ncnc32)C1 [compound 47] | 52
C=CC(=O)N1CC[C@@H](n2nc(C(=O)Nc3cc(Cl)c(CC(=O)N(C)C)cc3C)c3c(N)ncnc32)C1 [compound 67] | 72
(R)-4-(1-(1-acryloylpyrimidin-3-yl)-4-amino-1H-pyrazolo[3,4-d]pyrimidine-3-carboxamido)-3-methylphenyl piperidine-1-carboxylate [compound 70] | 10
C=CC(=O)N1CCC[C@@H](n2nc(C(=O)Nc3ccc(CC(=O)N(C)C)c(OC)c3)c3c(N)ncnc32)C1 [compound 40] | 23
C=CC(=O)N1CCCC(n2nc(Nc3ccc(C(=O)N(C)C)cc3)c3c(N)ncnc32)C1 (stereo not shown) [compound 21] | 26
C=CC(=O)N1CCC[C@@H](n2nc(C(=O)Nc3ccc(CC(=O)N(C)C)cc3CC)c3c(N)ncnc32)C1 [compound 49] | 20
C=CC(=O)N1CCC[C@@H](n2nc(C(=O)Nc3ccc(CC(=O)N(C)C)cc3C3CC3)c3c(N)ncnc32)C1 [compound 22] | 48
C=CC(=O)N1CCC[C@@H](n2nc(C(=O)Nc3cc(Cl)c(CC(=O)N(C)C)cc3Cl)c3c(N)ncnc32)C1 [compound 20] | 13
C=CC(=O)N1CCC[C@@H](n2nc(C(=O)Nc3ccc(CC(=O)N(C)C)cc3)c3c(N)ncnc32)C1 [compound 28] | 46
C=CC(=O)N1CCC[C@@H](n2nc(C(=O)Nc3ccc(CC(=O)N(C)C)cc3-c3ccoc3)c3c(N)ncnc32)C1 [compound 52] | 13
(R)-4-(1-(1-acryloylpyrimidin-3-yl)-4-amino-1H-pyrazolo[3,4-d]pyrimidine-3-carboxamido)-3-methylphenyl pyrrolidine-1-carboxylate [compound 69] | 9.2
(R)-4-(1-(1-acryloylpyrimidin-3-yl)-4-amino-1H-pyrazolo[3,4-d]pyrimidine-3-carboxamido)-3-methylphenyl methyl(phenyl) carbamate [compound 68] | 7.7
C=CC(=O)N1CC[C@@H](n2nc(C(=O)Nc3ccc(CC(=O)N(C)C)c(Cl)c3OC)c3c(N)ncnc32)C1 [compound 55] | 49
C=CC(=O)N1CCC[C@@H](n2nc(C(=O)Nc3cc(C#N)c(CC(=O)N(C)C)cc3C)c3c(N)ncnc32)C1 [compound 24] | 38
C=CC(=O)N1CCC[C@@H](n2nc(C(=O)Nc3ccc(CC(=O)N(C)C)cc3-c3ccco3)c3c(N)ncnc32)C1 [compound 51] | 17
C=CC(=O)N1CC[C@@H](n2nc(C(=O)Nc3ccc(CC(=O)N(C)C)c(F)c3Cl)c3c(N)ncnc32)C1 [compound 65] | 20
C=CC(=O)N1CCC[C@@H](n2nc(C(=O)Nc3cccc4c(CC(=O)N(C)C)ccnc34)c3c(N)ncnc32)C1 [compound 41] | 18
